Experimental data: ChEMBL document CHEMBL1153902, “Investigations of SCIO-469-like compounds for the inhibition of p38 MAP kinase” (Bioorg Med Chem Lett, 2009)

What was measured:
[1] = Inhibition of p38 MAPK assessed as substrate phosphorylation by ELISA
[2] = Inhibition of p38 MAPK assessed as substrate phosphorylation at 10 uM by ELISA
[3] = Selectivity for p38alpha over p38beta

Which IC50 [1] does the source give for `O=C(c1cc2ccccc2[nH]1)N1CCN(Cc2ccc(F)cc2)CC1` here?
Its IC50 is 3.2 µM.

With `CC(=O)c1c(C(=O)N2CCN(Cc3ccc(F)cc3)CC2)[nH]c2ccccc12` as the compound, how does the inhibition [2] read?
Its inhibition is 24%.

With `O=C(c1cc2ccccc2[nH]1)N1CCC(Cc2ccccc2)CC1` as the compound, how does the IC50 [1] read?
The IC50 was 1.09 µM.

Which IC50 [1] does the source give for `Cn1c(C(=O)N2CCN(Cc3ccc(F)cc3)CC2)c(Br)c2ccccc21` here?
Its IC50 is 2.24 µM.

With `CC(=O)c1ccc2[nH]c(C(=O)N3CCN(Cc4ccc(F)cc4)CC3)cc2c1` as the compound, how does the inhibition [2] read?
The inhibition was 45%.

For `O=C(c1cc2ccccc2o1)N1CCC(Cc2ccccc2)CC1`, which IC50 [1] is on record?
The IC50 was 1.75 µM.

Which IC50 [1] does the source give for `Cn1c(C(=O)N2CCN(Cc3ccc(F)cc3)CC2)cc2ccccc21` here?
Its IC50 is 1.36 µM.

For `O=C(c1cc2ccccc2o1)N1CCN(Cc2ccc(F)cc2)CC1`, which IC50 [1] is on record?
The IC50 was 8.42 µM.

For `O=C(c1[nH]c2ccccc2c1Br)N1CCN(Cc2ccc(F)cc2)CC1`, which IC50 [1] is on record?
Its IC50 is 6.46 µM.

With `O=C(c1[nH]c2ccccc2c1I)N1CCN(Cc2ccc(F)cc2)CC1` as the compound, how does the IC50 [1] read?
The IC50 was 7.47 µM.

Which inhibition [2] does the source give for `O=C(c1cn2ccccc2n1)N1CCN(Cc2ccc(F)cc2)CC1` here?
Its inhibition is 33%.

With `Cn1c(C(=O)N2CCN(Cc3ccc(F)cc3)CC2)nc2ccccc21` as the compound, how does the inhibition [2] read?
Its inhibition is 32%.

For `O=C(c1ccco1)N1CCN(Cc2ccc(F)cc2)CC1`, which inhibition [2] is on record?
Its inhibition is 35%.

Which IC50 [1] does the source give for `CC(=O)c1cccc2c(Cl)c(C(=O)N3CCN(Cc4ccc(F)cc4)CC3)[nH]c12` here?
Its IC50 is 2.46 µM.

For `O=C(c1cc2ccccc2[nH]1)N1CCN(Cc2ccccc2)CC1`, which IC50 [1] is on record?
Its IC50 is 5.77 µM.

With `CN(C)C(=O)C(=O)c1cn(C)c2ccc(NC(=O)N3CCN(Cc4ccc(F)cc4)CC3)cc12` as the compound, how does the inhibition [2] read?
The inhibition was 12%.

For `CC(C)(C)OC(=O)n1ccc2cc(CNC(=O)N3CCN(Cc4ccc(F)cc4)CC3)ccc21`, which inhibition [2] is on record?
Its inhibition is 8%.

For `O=C(c1ccco1)N1CCN(Cc2ccccc2)CC1`, which inhibition [2] is on record?
Its inhibition is 20%.

For `O=C(c1[nH]c2ccccc2c1Cl)N1CCN(Cc2ccc(F)cc2)CC1`, which IC50 [1] is on record?
The IC50 was 7.57 µM.

With `Cn1ccc2cc(NC(=O)N3CCN(Cc4ccc(F)cc4)CC3)ccc21` as the compound, how does the inhibition [2] read?
The inhibition was 28%.

For `O=C(c1nc2ccccc2[nH]1)N1CCN(Cc2ccc(F)cc2)CC1`, which inhibition [2] is on record?
Its inhibition is 24%.

With `CC(=O)c1cccc2cc(C(=O)N3CCN(Cc4ccc(F)cc4)CC3)[nH]c12` as the compound, how does the IC50 [1] read?
Its IC50 is 3.61 µM.

For `CC(=O)c1ccc2[nH]c(C(=O)N3CCN(Cc4ccc(F)cc4)CC3)c(Cl)c2c1`, which IC50 [1] is on record?
Its IC50 is 6.51 µM.

Which fold change (FC) [3] does the source give for `CN(C)C(=O)C(=O)c1cn(C)c2cc(Cl)c(C(=O)N3CCC(Cc4ccc(F)cc4)CC3)cc12` here?
The fold change (FC) was 10.

For `Fc1ccc(CN2CCN(Cc3cc4ccccc4[nH]3)CC2)cc1`, which inhibition [2] is on record?
Its inhibition is 25%.

Which inhibition [2] does the source give for `O=C(c1cc2c(Br)cccc2[nH]1)N1CCN(Cc2ccc(F)cc2)CC1` here?
The inhibition was 34%.
